Test system: U2OS
Assay: Growth inhibition of human U2OS cells after 3 days in presence of werner syndrome helicase inhibitor NSC 19630
Assay type: functional

## Cc1oc2nc1-c1nc(co1)-c1nc(co1)-c1nc(co1)-c1nc(co1)-c1nc(co1)C1=NC(CS1)c1nc-2c(C)o1 (stereo unspecified) [TELOMESTATIN]
  growth inhibition (GI): 70%
